# Values quoted from earlier work in patent US20110111022A1, “PHARMACEUTICAL FORMULATION” (priority 2008, published 2011).
# Legend:
# [1] = target: hepatic cytochrome P450 3A4 (Homo sapiens, UniProt P08684)
# [2] = concurrent administration of aliskiren and irbesartan
# Chain of hepatic cytochrome P450 3A4 (P08684 whole entry): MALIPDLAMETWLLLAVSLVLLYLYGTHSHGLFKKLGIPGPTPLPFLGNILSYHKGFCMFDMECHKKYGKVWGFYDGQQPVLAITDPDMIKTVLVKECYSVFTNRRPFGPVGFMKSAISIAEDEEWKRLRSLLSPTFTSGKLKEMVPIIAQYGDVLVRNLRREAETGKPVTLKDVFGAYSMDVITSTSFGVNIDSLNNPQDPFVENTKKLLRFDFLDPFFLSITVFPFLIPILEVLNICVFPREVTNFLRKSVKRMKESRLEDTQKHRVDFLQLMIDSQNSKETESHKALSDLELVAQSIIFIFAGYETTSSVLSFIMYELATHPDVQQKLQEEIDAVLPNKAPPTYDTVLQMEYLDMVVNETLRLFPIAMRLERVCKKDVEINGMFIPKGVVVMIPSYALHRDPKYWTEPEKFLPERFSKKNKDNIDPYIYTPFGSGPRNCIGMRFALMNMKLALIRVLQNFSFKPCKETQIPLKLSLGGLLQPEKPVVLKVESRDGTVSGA
structure (smiles),measurement,setting,value
"COCCCOc1cc(C[C@@H](C[C@H](N)[C@@H](O)C[C@H](C(=O)NCC(C)(C)C(N)=O)C(C)C)C(C)C)ccc1OC [aliskiren, 2(S),4(S),5(S),7(S)—N-(3-amino-2,2-dimethyl-3-oxopropyl)-2,7-di(1-methylethyl)-4-hydroxy-5-amino-8-[4-methoxy-3-(3-methoxy-propoxy)phenyl]-octanamide]",metabolism in in vitro experiments,[1],metabolized by hepatic cytochrome P450 3A4
same,solubility in water,,easily soluble in water
same,decrease in blood aliskiren level,[2],50%
